Test results published in patent US11925655B2, “FAP-activated therapeutic agents, and uses related thereto” (Bach Biosciences, LLC, priority 2014, dated 2024).
Like-named read-outs stand apart in the source and are kept apart here.

What was measured:
[1] = tested on: CT26 cells; experiment: CellTiter-Blue cell viability assay with CT26 cells; assay type: cell-based; conditions: Mus musculus
[2] = molecular target: T1, FAP (Homo sapiens, UniProt Q12884); experiment: Specificity of activation: digest with FAP; assay type: biochemical; conditions: 100 μM prodrug, 24 hours at 37° C.
T1 sequence (Q12884 1-760): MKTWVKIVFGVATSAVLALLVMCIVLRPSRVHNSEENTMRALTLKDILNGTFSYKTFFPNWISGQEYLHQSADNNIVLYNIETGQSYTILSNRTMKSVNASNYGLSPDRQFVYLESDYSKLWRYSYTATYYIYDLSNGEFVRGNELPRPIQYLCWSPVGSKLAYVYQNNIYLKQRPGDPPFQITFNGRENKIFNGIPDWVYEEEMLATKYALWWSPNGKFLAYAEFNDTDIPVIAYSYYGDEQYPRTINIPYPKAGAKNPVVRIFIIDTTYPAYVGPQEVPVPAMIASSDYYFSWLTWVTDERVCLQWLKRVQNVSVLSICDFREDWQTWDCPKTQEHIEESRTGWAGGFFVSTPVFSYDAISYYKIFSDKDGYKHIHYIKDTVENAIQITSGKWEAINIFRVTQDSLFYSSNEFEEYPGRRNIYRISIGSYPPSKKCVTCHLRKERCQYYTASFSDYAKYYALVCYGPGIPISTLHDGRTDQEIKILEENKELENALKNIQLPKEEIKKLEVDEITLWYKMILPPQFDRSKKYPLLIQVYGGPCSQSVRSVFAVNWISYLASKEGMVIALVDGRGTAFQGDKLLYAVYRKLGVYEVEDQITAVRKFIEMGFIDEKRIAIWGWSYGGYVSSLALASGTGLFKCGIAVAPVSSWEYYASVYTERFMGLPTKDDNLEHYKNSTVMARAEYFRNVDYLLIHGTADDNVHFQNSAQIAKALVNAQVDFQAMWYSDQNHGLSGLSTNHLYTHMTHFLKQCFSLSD
Experimental: (§1) Total doxorubicin was measured for each assay.

[3] = molecular target: T2, PREP (Homo sapiens, UniProt P48147); experiment: Specificity of activation: digest with PREP; assay type: biochemical; conditions: 100 μM prodrug, 24 hours at 37° C.
T2 sequence (P48147 1-710): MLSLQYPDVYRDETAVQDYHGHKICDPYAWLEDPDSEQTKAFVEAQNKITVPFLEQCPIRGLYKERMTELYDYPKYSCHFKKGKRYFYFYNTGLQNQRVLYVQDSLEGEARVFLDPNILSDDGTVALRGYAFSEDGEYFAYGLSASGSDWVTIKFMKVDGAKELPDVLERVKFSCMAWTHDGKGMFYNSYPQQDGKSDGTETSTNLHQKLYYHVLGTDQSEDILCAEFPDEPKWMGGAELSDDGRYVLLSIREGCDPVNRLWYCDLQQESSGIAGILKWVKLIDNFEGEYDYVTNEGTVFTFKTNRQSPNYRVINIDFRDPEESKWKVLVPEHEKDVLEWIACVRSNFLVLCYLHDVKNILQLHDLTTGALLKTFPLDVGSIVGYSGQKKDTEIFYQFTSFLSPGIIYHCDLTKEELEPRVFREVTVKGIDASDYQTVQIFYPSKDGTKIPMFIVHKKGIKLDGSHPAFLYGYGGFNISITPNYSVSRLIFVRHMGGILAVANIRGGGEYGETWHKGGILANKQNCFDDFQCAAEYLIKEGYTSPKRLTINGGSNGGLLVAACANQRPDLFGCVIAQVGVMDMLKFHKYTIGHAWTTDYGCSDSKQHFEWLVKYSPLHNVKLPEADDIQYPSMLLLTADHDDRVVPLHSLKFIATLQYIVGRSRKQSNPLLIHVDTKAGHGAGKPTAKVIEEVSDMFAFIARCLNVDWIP
Experimental: as §1

[4] = molecular target: dipeptidyl peptidase IV (DPP IV) (Homo sapiens, UniProt P27487); experiment: Specificity of activation: digest with DPP IV; assay type: biochemical; conditions: 100 μM prodrug, 24 hours at 37° C.
Experimental: as §1

[5] = tested on: HEK-mFAP cells; experiment: CellTiter-Blue cell viability assay with HEK-mFAP cells; assay type: cell-based, human; conditions: Homo sapiens, 5107DOX assay, 72 hour incubation
[6] = Stability in mouse muscle lysate; conditions: 100 μM prodrug, 37° C., 12 h
[7] = tested on: COc1cccc2c1C(=O)c1c(O)c3c(c(O)c1C2=O)C[C@@](O)(C(=O)CO)C[C@@H]3OC1CC(NC(=O)[C@@H]2CCCN2C(=O)[C@@H](C)NC(=O)c2ccncc2)C(O)C(C)O1; assay type: biochemical; conditions: other: 1.34×10^−8 M FAP, 37° C., pH 7.5
Experimental: Michaelis-Menten enzyme kinetics for FAP were measured using a SpectraMax M2e microplate reader (Molecular Devices, Sunnyvale, CA, USA). The assays were performed in FAP buffer (50 mM Tris, 140 mM NaCl, pH 7.5) at 25° C., and the fluorescence continuously monitored at excitation and emission wavelengths of 380 and 460 nm, respectively. Kinetic constants (kcat and Km) were determined using GP-AMC (Bachem, Torrance, CA, USA), Ac-(D)-AP-AFC (MP Biomedicals, Solon, OH, USA) and test article concentrations equivalent to 0.1-5 times their respective Km values, and with 5-10 nM enzyme. All assays were performed in triplicate, and the results were calculated with a nonlinear regression analysis, relying on a Michaelis-Menten curve fit using GraphPad software.
3099DOX at various concentrations ranging from 8.5×10^−6 M to 6.9×10^−4 M was incubated with 1.34×10^−8 M FAP or PREP at 37° C., and released doxorubicin measured.

[8] = tested on: COc1cccc2c1C(=O)c1c(O)c3c(c(O)c1C2=O)C[C@@](O)(C(=O)CO)C[C@@H]3OC1CC(NC(=O)[C@@H]2CC(F)(F)CN2C(=O)CNC(=O)c2ccnc3ccccc23)C(O)C(C)O1; experiment: FAP digest of 5057DOX (kinetics); assay type: biochemical
[9] = other: 5057DOX assay 6, [FAP] 4.00 × 10^−9M
[10] = other: 5057DOX assay 7, [FAP] 1 nM

Sequence of dipeptidyl peptidase IV (DPP IV) (P27487 whole entry, species assumed): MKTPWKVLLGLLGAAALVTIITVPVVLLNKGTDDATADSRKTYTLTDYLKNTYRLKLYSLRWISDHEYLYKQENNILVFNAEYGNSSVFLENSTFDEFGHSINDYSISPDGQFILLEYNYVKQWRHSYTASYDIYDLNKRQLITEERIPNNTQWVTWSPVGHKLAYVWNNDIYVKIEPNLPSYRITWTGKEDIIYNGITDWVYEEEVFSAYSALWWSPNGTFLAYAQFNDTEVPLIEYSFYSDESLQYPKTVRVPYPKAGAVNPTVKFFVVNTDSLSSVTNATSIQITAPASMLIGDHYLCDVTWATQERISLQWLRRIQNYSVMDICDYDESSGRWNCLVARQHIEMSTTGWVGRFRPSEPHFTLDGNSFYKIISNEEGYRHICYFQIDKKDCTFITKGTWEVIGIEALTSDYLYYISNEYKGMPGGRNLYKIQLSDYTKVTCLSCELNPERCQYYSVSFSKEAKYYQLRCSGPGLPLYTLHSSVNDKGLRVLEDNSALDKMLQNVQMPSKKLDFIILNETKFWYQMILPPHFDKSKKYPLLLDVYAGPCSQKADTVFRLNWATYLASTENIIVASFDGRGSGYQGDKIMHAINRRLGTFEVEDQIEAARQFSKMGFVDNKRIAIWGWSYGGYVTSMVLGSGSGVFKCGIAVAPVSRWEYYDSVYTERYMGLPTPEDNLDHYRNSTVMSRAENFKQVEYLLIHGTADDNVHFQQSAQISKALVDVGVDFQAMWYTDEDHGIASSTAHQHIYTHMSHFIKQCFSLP

`COc1cccc2c1C(=O)c1c(O)c3c(c(O)c1C2=O)C[C@@](O)(C(=O)CO)C[C@@H]3OC1CC(NC(=O)[C@@H]2CCCN2C(=O)[C@@H](C)NC(=O)[C@H](CO)NC(=O)CCC(=O)O)C(O)C(C)O1` (stereo partly shown) [Compound 3996DOX] showed an EC50 ([1]; read-out: EC50 (prodrug + 50 nM FAP)) of 26 µM, an EC50 ([1]; read-out: EC50 (prodrug + 50 nM PREP)) of 210 µM and an EC50 ([1]; read-out: EC50 (prodrug alone)) of 190 µM. For the same molecule, the “doxorubicin released by FAP, relative amount” value ([2]; as much doxorubicin as from the other prodrugs) was “about 15%”, the “doxorubicin released by PREP” value [3] was “essentially none” and the “doxorubicin released by DPP IV” value [4] was “essentially none”.

In the case of `COc1cccc2c1C(=O)c1c(O)c3c(c(O)c1C2=O)C[C@@](O)(C(=O)CO)C[C@@H]3OC1CC(NC(=O)[C@@H]2CC(F)(F)CN2C(=O)[C@@H](C)NC(=O)c2ccnc3ccccc23)C(O)C(C)O1` (stereo partly shown) [Compound 5107DOX], the EC50 ([5]; read-out: EC50 (prodrug + 100 uM 5057-2)) is reported as > 100 µM and the EC50 ([5]; read-out: EC50 (prodrug alone)) is reported as 0.94 µM.

For `COc1cccc2c1C(=O)c1c(O)c3c(c(O)c1C2=O)C[C@@](O)(C(=O)CO)C[C@@H]3O[C@H]1C[C@H](NC(=O)[C@@H]2CCCN2C(=O)CNC(=O)OCc2ccccc2)[C@H](O)[C@H](C)O1` [z-GP-DOX, reference compound], the “doxorubicin released by FAP” value [2] was “A similar amount of doxorubicin was released”, the “doxorubicin released by PREP” value [3] was “A similar amount of doxorubicin was released” and the “doxorubicin released by DPP IV” value [4] was “essentially none”. The “doxorubicin released in mouse muscle lysate” value [6] was “a large amount of doxorubicin”.

Work on FAP (Homo sapiens) yielded a Km [7] of 11.2 µM, a Vmax [7] of 5.877e-09 M/s and a kcat [7] of 0.44 s⁻¹. For the same molecule, the kcat/Km [7] was 39171 M⁻¹ s⁻¹, the Km [8, 9] was “Km 1.11 × 10^−5M M” and the Vmax [8, 9] was “Vmax 5.19 × 10^−9M/sec M/sec”. For the same molecule, the kcat/Km [8, 9] was “kcat/Km 1.17 × 10^5M^−1sec^−1 M^−1sec^−1”, the Km [8, 10] was “Km 4.85 × 10^−6M M” and the kcat [8, 10] was “Kcat 0.98 sec^−1 sec^−1”. The kcat/Km [8, 10] was “Kcat/Km 2.00 × 10^5M^−1 sec^−1 M^−1 sec^−1”.
